Several values for one entry are separate records, joined by “and”; a condition that tells them apart may be missing. Identical values can stand only once.
Assays:
hOATP1B3 = target: T1, hOATP1B3 (Homo sapiens, UniProt Q9NPD5); test: Inhibition of EβG uptake in HEK293 cells overexpressing hOATP1B3; conditions: HEK293 hOATP1B3; inhibitor 10 μM, 15-min pre-incubation
T1 sequence (Q9NPD5 1-702): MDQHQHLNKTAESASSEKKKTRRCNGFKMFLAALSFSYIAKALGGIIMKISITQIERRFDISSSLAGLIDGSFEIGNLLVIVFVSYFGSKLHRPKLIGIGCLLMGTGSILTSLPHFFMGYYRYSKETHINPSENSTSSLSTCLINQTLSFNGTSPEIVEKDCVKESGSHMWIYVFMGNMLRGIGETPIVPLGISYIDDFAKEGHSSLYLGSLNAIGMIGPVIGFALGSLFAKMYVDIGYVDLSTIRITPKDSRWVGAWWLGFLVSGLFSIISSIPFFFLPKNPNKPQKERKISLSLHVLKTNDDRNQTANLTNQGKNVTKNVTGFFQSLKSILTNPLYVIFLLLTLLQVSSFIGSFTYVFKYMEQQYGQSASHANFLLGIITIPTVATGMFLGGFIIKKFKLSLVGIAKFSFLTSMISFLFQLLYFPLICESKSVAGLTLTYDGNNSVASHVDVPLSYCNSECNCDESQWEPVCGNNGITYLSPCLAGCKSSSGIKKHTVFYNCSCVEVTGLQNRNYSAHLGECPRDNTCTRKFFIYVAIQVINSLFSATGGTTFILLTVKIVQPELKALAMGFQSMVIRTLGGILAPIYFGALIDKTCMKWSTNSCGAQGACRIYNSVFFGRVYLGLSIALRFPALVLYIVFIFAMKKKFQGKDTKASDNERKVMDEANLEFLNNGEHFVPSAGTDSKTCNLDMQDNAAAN

[1] = Plasma pharmacokinetics of nilotinib in mice; assay type: in vivo, mouse; conditions: OATP1B2(-/-) mice; for concentration at […]: DBA/1LacJ, mouse, plasma, oral, Plasma concentration of nilotinib
Procedure: Pharmacokinetic studies. Pharmacokinetic studies were performed following an established protocol […]
0.5% hydroxypropyl-methylcellulose in water) was administered at a dose of 10 mg/kg . Serial whole blood samples (0.25, 0.5, 1, 2, 4, and 6 h) were collected from the submandibular vein for the initial three time - points, from the retro-orbital sinus vein for the subsequent two time-points, and cardiac puncture at the terminal time-point. Blood samples were centrifuged at 11,000 rpm for 5 min, and the plasma supernatants collected and stored at -80°C until analysis by a validated method based on reversed -phase liquid chromatography coupled to tandem mass-spectrometric detection (LC-MS/MS). Livers were collected from the same animals at endpoint and, to prevent continuing metabolic activity, tissues were snap frozen using liquid nitrogen. […]
mg/kg or 100 mg/kg, and after 1.5 h, plasma, liver, and whole DRG were collected. All plasma and tissue specimens were stored at -80°C until further processing. […]
were collected at the final time point. […]
specimens were stored at -80°C until further processing. All tissues were homogenized with 5-mm […]
Finally, the beads were removed, and
WinNonlin version 8.0 (Certara). […]
of the data from the concentration-time curves.
Determination of drug levels. […]
column was maintained at 50°C.

[2] = Nilotinib levels in liver and DRG of mice; assay type: in vivo, mouse; conditions: OATP1B2(-/-) mice; for concentration at […]: DBA/1LacJ, mouse, liver, oral, Liver nilotinib
Procedure: injection at a dose of 1 mg/kg. Whole blood samples were collected 0.08, 0.25, 0.5, 1, and 4 h, and livers were collected at the final time point.
Finally, the beads were removed, and the homogenized samples were stored at -80°C until analysis by LC-MS/MS.
Pharmacokinetic parameters were calculated by non -compartmental analysis using Phoenix WinNonlin version 8.0 (Certara). Peak plasma concentration (C max) was determined by visual inspection of the data from the concentration-time curves. The linear trapezoidal rule was used to obtain the area under the plasma concentration-time curve (AUC), and drug levels in tissues were corrected for
Quantiva triple quadrupole mass spectrometer from Thermo Fisher Scientific was used for LC-MS/MS
An Accucore aQ column (150 × 2.1 mm, dp = 2.6 μm, Thermo Fisher Scientific) was protected
volume was 5.0 μL. The temperature of the autosampler rack was 4°C, and the temperature of the
column was maintained at 50°C. Mobile phase A consisted of water with 0.1% (v/v) formic acid and
mobile phase B consisted of acetonitrile: methanol (1:1) with 0.1% (v/v) formic acid.
assay setting with the positive voltage applied to the ESI capillary was set at 4000 V, and the capillary

hOAT1 = hOAT1 (Homo sapiens, UniProt Q4U2R8); test: Vincristine uptake screen, HeLa cells overexpressing hOAT1; assay type: in vitro ADME
hOAT1, sequence (Q4U2R8 whole entry): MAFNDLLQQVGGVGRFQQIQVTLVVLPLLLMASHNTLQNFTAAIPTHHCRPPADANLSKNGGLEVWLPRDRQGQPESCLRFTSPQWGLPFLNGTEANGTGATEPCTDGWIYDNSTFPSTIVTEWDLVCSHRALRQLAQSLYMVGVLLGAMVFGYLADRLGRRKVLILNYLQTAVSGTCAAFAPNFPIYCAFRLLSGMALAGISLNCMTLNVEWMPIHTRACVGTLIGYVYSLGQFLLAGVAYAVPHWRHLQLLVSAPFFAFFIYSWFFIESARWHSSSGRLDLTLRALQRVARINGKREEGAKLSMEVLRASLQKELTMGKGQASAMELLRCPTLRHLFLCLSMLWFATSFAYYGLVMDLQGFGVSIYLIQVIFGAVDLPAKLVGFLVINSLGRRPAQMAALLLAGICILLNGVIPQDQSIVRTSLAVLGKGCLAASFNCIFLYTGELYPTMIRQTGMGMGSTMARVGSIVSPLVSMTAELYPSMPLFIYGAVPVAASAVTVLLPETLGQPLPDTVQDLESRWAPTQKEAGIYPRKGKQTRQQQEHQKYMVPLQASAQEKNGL
Procedure: (§1) Relative uptake is expressed as percentage change compared with empty vector controls (n = 4–14 per group). […] Human OATP1B1 and OATP1B3 transporter–overexpressed cells were used as positive controls; empty vector controls were used as the negative control. […] Mechanical allodynia (C), thermal hyperalgesia (D), and sciatic nerve maximal action potential amplitudes (E) are expressed as percentage change relative to baseline values (n = 6–8 per group). Statistical analysis was performed using a 2-way ANOVA with Bonferroni’s post hoc test. **P < 0.01, ***P < 0.001, ****P < 0.0001, compared with baseline values. […] Data are shown as mean ± SEM. […]
(§2) transfected with transporters of interest, including hOAT1, hOAT3, hOAT4, hOATP1A2, hOATP3A1, hOATP4A1, hOATP5A1, hOATP1C1, hOATP1B1, hOATP1B3, hOATP2B1, hOCT1, hOCT2, hOCTN1, hOCTN2, hASBT, hNTCP, hNPT1, hMATE1, hOSTα/β, hPEPT1, hPEPT2, rOatp1a1, rOatp1a4, rOatp1a5, rOatp1b2, rNtcp, rAsbt, rOat1, and rOct1. Cells were transfected with expression plasmid or vector control lacking any insert using Lipofectin reagent (Invitrogen). […] The cellular radioactivity was quantified by liquid scintillation counting as described above. […]
(§3) Samples were analyzed using real-time quantitative PCR and Taqman Probes (Applied Biosystems). The relative gene expression was determined using the ΔΔCt method, and normalized to the mouse or human housekeeping gene, GAPDH. […]

hOATP1A2 = hOATP1A2 (Homo sapiens, UniProt P46721); test: Vincristine uptake screen, HeLa cells overexpressing hOATP1A2; assay type: in vitro ADME
hOATP1A2, sequence (P46721 whole entry): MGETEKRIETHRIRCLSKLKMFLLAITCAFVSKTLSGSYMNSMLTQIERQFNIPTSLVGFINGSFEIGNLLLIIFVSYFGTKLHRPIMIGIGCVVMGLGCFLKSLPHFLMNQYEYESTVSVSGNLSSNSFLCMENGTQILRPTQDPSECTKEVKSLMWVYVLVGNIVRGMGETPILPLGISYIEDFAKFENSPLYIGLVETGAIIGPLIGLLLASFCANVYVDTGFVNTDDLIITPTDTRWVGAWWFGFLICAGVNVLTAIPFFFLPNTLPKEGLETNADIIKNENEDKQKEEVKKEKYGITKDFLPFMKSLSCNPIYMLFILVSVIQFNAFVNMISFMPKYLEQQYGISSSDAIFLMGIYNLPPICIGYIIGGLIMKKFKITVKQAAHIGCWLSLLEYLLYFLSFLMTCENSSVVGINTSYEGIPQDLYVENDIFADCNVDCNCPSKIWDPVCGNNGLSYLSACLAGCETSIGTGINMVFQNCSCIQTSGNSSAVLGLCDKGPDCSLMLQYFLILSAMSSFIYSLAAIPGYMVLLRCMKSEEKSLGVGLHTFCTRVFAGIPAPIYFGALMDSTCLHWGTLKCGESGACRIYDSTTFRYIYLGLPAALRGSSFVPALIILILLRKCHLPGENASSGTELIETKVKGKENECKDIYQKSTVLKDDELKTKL
Procedure: as §1, §2, §3

hOATP2B1 = hOATP2B1 (Homo sapiens, UniProt O94956); test: Vincristine uptake screen, HeLa cells overexpressing hOATP2B1; assay type: in vitro ADME
hOATP2B1, sequence (O94956 whole entry): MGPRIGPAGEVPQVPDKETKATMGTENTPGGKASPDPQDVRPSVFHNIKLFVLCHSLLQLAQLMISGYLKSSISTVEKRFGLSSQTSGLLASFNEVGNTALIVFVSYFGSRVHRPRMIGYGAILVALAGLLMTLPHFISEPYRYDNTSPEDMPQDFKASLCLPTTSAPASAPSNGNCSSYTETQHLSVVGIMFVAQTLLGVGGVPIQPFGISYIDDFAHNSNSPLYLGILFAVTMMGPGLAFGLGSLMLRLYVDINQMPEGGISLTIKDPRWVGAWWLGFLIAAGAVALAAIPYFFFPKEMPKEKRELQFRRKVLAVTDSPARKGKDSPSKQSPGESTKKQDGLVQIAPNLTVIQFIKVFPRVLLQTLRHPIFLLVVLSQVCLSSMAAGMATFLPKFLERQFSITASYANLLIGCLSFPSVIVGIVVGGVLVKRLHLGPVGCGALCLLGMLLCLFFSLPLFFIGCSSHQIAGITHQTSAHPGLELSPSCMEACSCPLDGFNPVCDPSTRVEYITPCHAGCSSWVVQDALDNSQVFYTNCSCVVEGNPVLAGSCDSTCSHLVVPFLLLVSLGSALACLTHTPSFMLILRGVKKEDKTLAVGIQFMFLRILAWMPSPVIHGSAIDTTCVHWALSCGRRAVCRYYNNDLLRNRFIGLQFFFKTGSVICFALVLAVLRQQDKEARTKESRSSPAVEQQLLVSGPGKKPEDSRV
Procedure: as §1, §2, §3

In the case of `Cc1cn(-c2cc(NC(=O)c3ccc(C)c(Nc4nccc(-c5cccnc5)n4)c3)cc(C(F)(F)F)c2)cn1` [Nilotinib, nilotinib], the “EβG uptake (% of vehicle)” value (hOATP1B3) is reported as 3.038 % of vehicle and 2.924 % of vehicle and 2.718 % of vehicle, the concentration at […] ([1]; 25 mg/kg) is reported as 8020 ng/mL and the concentration at […] ([1]; 100 mg/kg) is reported as 25800 ng/mL. For the same molecule, the “Plasma concentration of nilotinib” value ([1]; 25mg/kg) was 9973.68 ng/mL and 13343.6 ng/mL, the “Plasma concentration of nilotinib” value ([1]; 100mg/kg) was 22063.7 ng/mL and 33922 ng/mL and the concentration at […] ([2]; 25 mg/kg) was 11900 ng/g. The concentration at […] ([2]; 100 mg/kg) was 33700 ng/g, the Liver nilotinib ([2]; 25mg/kg) was 14.24 ng/mg tissue and 15.56 ng/mg tissue and the Liver nilotinib ([2]; 100mg/kg) was 30.37 ng/mg tissue and 41.94 ng/mg tissue.
With `CC[C@]1(O)C[C@H]2CN(CCc3c([nH]c4ccccc34)[C@@](C(=O)OC)(c3cc4c(cc3OC)N(C=O)[C@H]3[C@@](O)(C(=O)OC)[C@H](OC(C)=O)[C@]5(CC)C=CCN6CC[C@]43[C@@H]65)C2)C1` [Vincristine, vincristine] the “Vincristine uptake (% of vector control)” value (hOAT1) was 127.00 % of vector control and 112.00 % of vector control and 76.00 % of vector control and 98.00 % of vector control and 129.00 % of vector control and 120.00 % of vector control and 111.00 % of vector control and 117.00 % of vector control, the “Vincristine uptake (% of vector control)” value (hOATP1A2) was 186.00 % of vector control and 176.00 % of vector control and 142.00 % of vector control and 167.00 % of vector control and 183.00 % of vector control and 171.00 % of vector control and 148.00 % of vector control and 164.00 % of vector control and the “Vincristine uptake (% of vector control)” value (hOATP2B1) was 113.00 % of vector control and 80.00 % of vector control and 88.00 % of vector control and 105.00 % of vector control and 83.00 % of vector control and 131.00 % of vector control and 125.00 % of vector control and 135.00 % of vector control.

Source: article PMC10443802, “Targeting a xenobiotic transporter to ameliorate vincristine-induced sensory neuropathy” (JCI Insight, 2023)
